Assay results as given in PubChem BioAssay AID179 (DTP/NCI, 2004).
Calls of active or inactive are those of the source.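 The calls were made as follows: active = compounds giving half or more protection of infected cells from virus-caused growth loss, again on retest; inactive = the rest.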

Tested on: CEM cells HIV-1 protection, formazan growth assay
Experiment: NCI AIDS Antiviral Assay
Conditions: for IC50: measured here: growth of uninfected CEM cells
Procedure, shortened: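 Protection of CEM cells against HIV-1 measured as cell growth via soluble formazan read-out, with five concentrations tested on both infected and uninfected cells; failure to protect may reflect toxicity.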

Compound | EC50 [µM] | IC50 [µM] | outcome
CCCCCCCCCCCC(=O)OCC1OC(n2cc(F)c(=O)[nH]c2=O)C(NC(=O)OCc2ccccc2)C(OC(=O)CCCCCCCCCCC)C1O (stereo unspecified) | > 6.61 | > 6.61 | –
COc1ccc2c(O)c(Oc3ccc(Cl)cc3)c(=O)oc2c1 | – | – | inactive
Brc1ccc2c(c1)[C@H]1CCc3c([nH]c4ccccc34)[C@H]1N2 | > 200 | 25.7 | –
Cc1ccc(NC(=O)CC2C(=O)Nc3ccccc3S2(=O)=O)cc1C (stereo unspecified) | > 10.5 | > 10.5 | –
CCCCC/C(=N\c1nc[nH]c1C(N)=O)OCC | > 200 | > 200 | –
CC1=NN(C(=O)c2ccc(Cl)cc2)C(=O)/C1=C/c1ccc(Cl)cc1 | > 10.5 | > 10.5 | –
CCOC(=O)C(=[N+]=[N-])C(=O)Nc1nn2nnnc2c2ccccc12 | > 200 | > 200 | –
CC(C)(C)C1CCP(=O)(c2ccccc2)CC1 (stereo unspecified) | 0.0631 | > 200 | –
CCc1n[nH]c(=O)n1N1C(=O)CCC1=O | > 200 | > 200 | –
c1csc(-c2ccsc2-c2ccsc2)c1 | > 200 | 87.1 | –
S=C1Cc2c(-c3ccc(Cl)cc3)cc(-c3ccccc3)nc2-c2ccccc2N1 | > 200 | 20.9 | –
Oc1c(CN2CCOCC2)ccc2cccnc12 | > 200 | 3.72 | –
C=CCP(c1ccccc1)c1ccccc1 | 0.0631 | > 200 | –
Cc1nn(C(=O)c2ccccc2O)c2c1C(c1ccc([N+](=O)[O-])cc1)SC(N)=N2 (stereo unspecified) | > 2 | 0.389 | –
ClCCN1CCOC1=Nc1ccc2c(c1)CCCC2 | > 200 | 43.7 | –
Cc1[nH]c2ccccc2c1C1Cc2ccccc2N1C(=O)C#Cc1ccc([N+](=O)[O-])cc1 (stereo unspecified) | – | – | inactive
[O-]c1on[n+]2c1CSC2 | > 1740 | > 1740 | –
C1=NCCNc2nc3ccccc3cc2C=NCCNc2nc3ccccc3cc21 | > 200 | > 200 | –
C=CCn1c(=O)c(C(=O)Nc2nc(C34CC5CC(CC(C5)C3)C4)cs2)c(O)c2ccccc21 | > 200 | 77.6 | –
Cc1cc(C)nc(NS(=O)(=O)c2ccc(NC(=O)c3cccc4c(Nc5ccc(S(=O)(=O)Nc6nc(C)cc(C)n6)cc5)c5ccc(Cl)cc5nc34)cc2)n1 | > 85.1 | > 85.1 | –
N#C/C(=C/c1cccc(Oc2ccccc2)c1)c1ccccc1 | > 6.76 | > 6.76 | –

Compound | EC50 [µM] | IC50 [µM] | outcome
CCNC(C)(C)C(SSSC(c1ccc(Cl)cc1)C(C)(C)NCC)c1ccc(Cl)cc1 (stereo unspecified) | > 200 | 9.12 | –
N#CC(=N)c1ncn(-c2ccccc2N)c1N | > 200 | > 200 | –
O=C1c2ccccc2C(=CC=C2c3ccccc3Sc3ccccc32)c2ccccc21 | > 9.12 | > 9.12 | –
CCCCCC1CC=CC(NC(=O)OCc2ccccc2)C1/C=C/CCCC1OCCO1 (stereo unspecified) | – | – | inactive
COc1ccc(NC(=O)CC(=O)n2nc(-c3ccccc3)c(N=Nc3ccccc3C)c2-c2ccccc2)cc1 | > 13.5 | > 13.5 | –
CCOC(=O)/C(=N\OC)C(O)C(F)(F)F (stereo unspecified) | > 200 | > 200 | –
COC(=O)CSc1[nH]c2nc(C)nc(Nc3ccccc3)c2c1C#N | > 200 | > 200 | –
O=C(O)Cc1cccc2c(=O)c3ccccc3oc12 | > 200 | > 200 | –
O=C(OC(CC[P+](c1ccccc1)(c1ccccc1)c1ccccc1)(C(=O)c1ccccc1)c1ccccc1)c1ccccc1 (stereo unspecified) | > 200 | 1.07 | –
Cc1c(Cl)ccc2c1NC(=O)C2(O)C1Cc2ccccc2C1=O (stereo unspecified) | > 28.8 | 12.6 | –
COc1cc2c(c3c1[C@@H](O)[C@H](C)[C@@H](C)O3)C=CC(C)(C)O2 | > 200 | 79.4 | –
O=C(Nc1ccc(Cl)cc1)P(=O)(O)c1ccccc1 | > 200 | > 200 | –
Cc1cn(C2CC(N=[N+]=[N-])C(COP(=O)(OCC(=O)c3ccccc3)OCC(=O)c3ccccc3)O2)c(=O)[nH]c1=O (stereo unspecified) | 0.00741 | 2 | –
Cc1cc(=O)[nH]c(CNC(=O)c2cccc(C(=O)NCc3cc(=O)[nH]c(C)n3)c2)n1 | > 617 | > 617 | –
C/C=C(\N=C=S)C(=O)OC1C(COC(C)=O)OC([C@]2(O)CC(=O)C(=N)C(C(=O)O)=C2O)C(O)C1OC1CC(OC)C(O)([C@@H](C)OC(=O)[C@@H](C)CC)C(C)O1 (stereo partly specified) | – | – | inactive
N#CC1=C(N)OC(c2ccc([N+](=O)[O-])cc2)C1(C#N)C#N (stereo unspecified) | > 200 | 10 | –
C#CN1C(=O)c2c(c(-c3ccccc3)c(-c3ccc(Oc4ccc(-c5c(-c6ccccc6)c6c(c(-c7ccccc7)c5-c5ccccc5)C(=O)N(C#C)C6=O)cc4)cc3)c(-c3ccccc3)c2-c2ccccc2)C1=O | > 10.2 | > 10.2 | –
c1cnn(CN(Cn2cccn2)Cn2cccn2)c1 | – | – | inactive
CN(c1ccccc1)c1cc2ccccc2nn1 | > 200 | 93.3 | –
CC(C)CCC[C@@H](C)C1CCC2[C@@H]3CC=C4C[C@@H](C(=O)NCCN(C)C)CC[C@]4(C)C3CC[C@@]21C (stereo partly specified) | – | – | inactive
